According to patent publication EP0127076A2, “Histargin, a microbiological process for its preparation, its use as a medicament, and the strain Streptomyces roseoviridis having the ability to produce histargin” (MICROBIAL CHEMISTRY RESEARCH FOUNDATION, priority 1983, dated 1984):

Legend:
Wistar rats = test: potentiation of morphine-induced analgesia, tail-flick technique in morphine-unresponsive rats; format: in vivo
Slc-CDF1 mice = test: cell-mediated immunity: delayed-type hypersensitivity (D.T.H.) to sheep red blood cell, footpad swelling; format: in vivo; conditions: normal mice, 5, 0.5, 0,05 and 0.005 mg/kg once intraperitoneally; statement on Table 1 (image)
Description: This effect was investigated using as its index the degree of delayed- type hypersensitivity (D.T.H.) to sheep red blood cell (SRBC) injectd intravenously as an antigen (see J. Exp. Med. 139, 1529-1539, 1974).
A suspension of 10^5 SRBCs in 0.05 ml of physiological saline solution was injected intravenously into Slc-CDF1 mice (female, 9 weeks old). Simultaneously, histargin monohydrate in doses of 5, 0.5, 0,05 and 0.005 mg/kg was administerd once intraperitoneally as a solution dissolved in physiological saline solution.
Four days after admnistration, a suspension of 10^8 SRBCs in 0.05 ml of physiological saline solution was injected subcutaneously to the footpads to induce D.T.H. Twenty-four hours after the subcutaneous injection, footpad swellings (increases in the foot thicknesses) were measured with a caliper. The mean footpad swelling in control animals receiving SRBCs and physiological saline solution but without the test compound was designated as C, which was set at 100 %• The mean footpad swelling in animals treated with SRBCs, physiological saline solution, and the test compound was designated as T. The ratio of T to C was calculated to evaluate the effect of the test compound to potentiate cell-mediated immunity.

enkephalinase B = enkephalinase B inhibition (tritiated methionine enkephalin hydrolysis); format: biochemical, crab-eating monkeys; conditions: concentration of 100 µg/ml, pH 7.0
Description: Enkephalinase B was obtained by homogenizing the brains of crab-eating monkeys, fractionating the homogenate, and purifying soluble fractions in accordance with the method of Hazato et al. (Biochemical and Biophysical Research Communications, Vol. 105, No. 2, pp. 470-475, 1982). The inhibitory activity of histargin against enkephalinase B was measured by the method of Hasato et al. described in the same reference.
Ten µmol of methionine enkephalin (Tyr-Gly-Gly-Phe-Met) having the terminal tyrosine partially tritiated was used as a substrate. This substrate was hydrolyzed with enkephalinase B in 100 µl of […] Tris-hydrochloric acid buffer solution (pH 7.0). The segment, Tyr-Gly, resulting from hydrolysis was separated using a column of Porapak Q (a product of Whatman), and determined quantitatively based on its radioactivity. The results obtained when the above reaction was carried out in the presence of histargin were compared with those obtained when the reaction was performed in the absence of histargin. Based on the comparison, the enkephalinase B-inhibiting activity of histragin was evaluated.

carboxypeptidase B = biological target: T1, carboxypeptidase B (Sus scrofa, UniProt P09955); test: anti-carboxypeptidase B activity (hippuryl-L-lysine substrate, cyanuric chloride colour reaction); format: biochemical; conditions: purified carboxypeptidase B from the pancreas of pigs, 37°C, pH 8.0; read-out: 50 % inhibition (IC50) against carboxypeptidase B (converted)
T1 construct: purified carboxypeptidase B (a product of Boehringer-Mannheim obtained from the pancreas of pigs); purchased Boehringer-Mannheim; host or cells: pig pancreas
T1 sequence (P09955 111-416): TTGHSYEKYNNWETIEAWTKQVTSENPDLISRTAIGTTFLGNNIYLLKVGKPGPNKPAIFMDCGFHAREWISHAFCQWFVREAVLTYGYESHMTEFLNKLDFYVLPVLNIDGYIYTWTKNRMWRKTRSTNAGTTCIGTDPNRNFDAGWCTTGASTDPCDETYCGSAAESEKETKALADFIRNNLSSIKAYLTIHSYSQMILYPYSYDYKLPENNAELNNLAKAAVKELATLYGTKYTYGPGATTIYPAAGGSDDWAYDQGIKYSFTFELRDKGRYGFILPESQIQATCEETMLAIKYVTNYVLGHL
Description: Histargin in the cultivation and purification steps was traced by measuring anti-carboxypeptidase B activity. Anti-carboxypeptidase B activity was measured in the following way according to an improved method based on the angiotensin I transferase activity determination method described in M.Hayakari et al., "Analytical Biochemistry," 84, 361-369, 1978.
A mixed solution was prepared by adding 0.25 ml of 0.05M Tris-hydrochloric acid buffer solution (pH 8.0) and 0.15 ml of a solution containing a histargin sample to 0.05 ml of 0.05M hippuryl-L-lysine (a product of Peptide Institute). The mixed solution was heated for 3 minutes at 37°C, and 0.05 ml of an aqueous solution of 1 µg/ml of purified carboxypeptidase B (a product of Boehringer-Mannheim obtained from the pancreas of pigs) was added to the mixed solution. To the resulting mixture was added 0.03 ml of 1N sodium hydroxide to terminate the reaction. Fifteen minutes later, 2 ml of a 1 % methyl cellosolve solution of cyanuric chloride was added for a color reaction. After the mixture was allowed to stand for 15 minutes at room temperature, the absorbance (a) at 382 nm was measured. Separately, there was measured the blank absorbance (b) of the same reaction mixture except that the histargin sample was not contained. The percent inhibition against carboxypeptidase B was calculated from the equation [(b - a)/b] x 100.

## CC(C)C[C@H](NC(=O)[C@@H](O)[C@H](N)Cc1ccccc1)C(=O)O [Bestatin]
Wistar rats; 250 mg/kg, for comparison, Wistar rats
  Potentiation of morphine-induced analgesia (%): 19.9%

## CN1CC[C@]23c4c5ccc(O)c4O[C@H]2[C@@H](O)C=C[C@H]3[C@H]1C5 [Morphine]
Wistar rats; morphine only 0.5 mg/kg (control group)
  Potentiation of morphine-induced analgesia (%): 0%
Wistar rats; morphine only 2 mg/kg
  Potentiation of morphine-induced analgesia (%): 28.4%
Wistar rats; morphine only 3 mg/kg
  Potentiation of morphine-induced analgesia (%): 35.1%

## N=C(N)NCCCC(NCCNC(Cc1cnc[nH]1)C(=O)O)C(=O)O (centres unmarked) [histargin monohydrate, histargin]
Slc-CDF1 mice
  effect on cell-mediated immunity (D.T.H. footpad swelling, T/C): potentiates cell-mediated immunity
Enkephalinase B
  inhibition against enkephalinase B: 92%
Wistar rats; 100 mg/kg intraperitoneally + 0.5 mg/kg morphine, morphine-unresponsive Wistar rats
  Potentiation of morphine-induced analgesia (%): 33.8%
Carboxypeptidase B
  IC50: 33.8 µM
